In US5747239A, “Synthetic peptides specific for the detection of antibodies to HCV, diagnosis of HCV infection and preventions thereof as vaccines” (United Biomedical, Inc., priority 1994, dated 1998):

Experiments:
Assay type in all cases: binding, human
antibodies to HCV [1] = experiment: Peptide ELISA for relative immunoreactivity, 8 member HCV serum panel (Panel I); conditions: NS-3 peptides (Tables 4B-4D), relative to pep3 (279A)
antibodies to HCV [2] = experiment: NS-1 peptide ELISA, early and late HCV infection panels
Procedure: In addition, all sixteen NS-1 peptides were tested on panels of samples representing HCV-antibody positive donors (n=9) in an early stage of infection, namely plasmapheresis donors with the first occurrence of an ALT level >100 i.u./L, and those asymptomatic individuals (n=14) disqualified from blood donation because of a reactive result for anti-HIV or HBc, for whom the anti-HCV result probably represents a past infection.
These select panels were chosen from hundreds of HCV positive sera for their ability to recognize NS-1 antigens. For both groups, peptide designated as 232A (pep2) had the greatest immunoreactivity. Using pep2 as a standard, the relative immunoreactivity of each peptide was calculated (Table 3C).

antibodies to HCV [3] = experiment: NS-1 peptide ELISA, Panel II (asymptomatic individuals, mainland China and Taiwan); conditions: NS-1 peptides; Panel II (CH1-CH7); relative to pep1 (231C)
Procedure: Wells of 96-well plates were coated for 1 hour at 37° C. with each of the 16 peptides (designated as peptides 241A-C, 231A-E, 232A-D, 233C, 234A-C), synthesized according to sequences derived from the NS-1 region (Table 3A), at 5 ug/mL at 100 uL per well in 10 mM NaHCO3 buffer, pH 9.5. Each peptide's immunoreactivity was measured as previously described (see Example 1), using an 8 member serum panel (Panel I).
A panel of serum samples from individuals coming from regions in which hepatitis C is endemic, namely mainland China and Taiwan, were tested for evidence of reactivity to these NS-1 protein derived peptides. Twenty-four samples were chosen from individuals who had no recognizable symptoms of non-A, non-B hepatitis and for whom the peptide based HCV EIA, Format C, as described in Example 11, was nonreactive. Seven of the 24 samples (29%) were reactive against one or more peptides from the NS-1 region, indicative of the presence of long term protective antibodies responsive to this region. This 7 member panel (designated as Panel II, CH1-CH7) was used to further characterize these NS-1 peptides for their immunoreactivity.
The peptide with the greatest reactivity against the serum Panel II again was pep1 (designated 231c in Table 3A). Using this peptide as a standard, the relative immunoreactivity for each of the other 15 peptides from the NS-1 region are calculated in Table 3A.

[4] = Early HCV Infection panel, n = 9
[5] = Late HCV Infection panel, n = 14

| Molecule | % Relative Immunoreactivity (antibodies to HCV [1]) [%] | % Relative Immunoreactivity in comparison to Pep2 (232A) (antibodies to HCV [2]; [4]) [%] | % Relative Immunoreactivity in comparison to Pep2 (232A) (antibodies to HCV [2]; [5]) [%] | % IP (antibodies to HCV [3]) [%] |
| --- | --- | --- | --- | --- |
| RTITTGSPITYSTYGKFLADGGCSGGAYDIIICDECHS [275A] | 18.2 | – | – | – |
| RTITTGSPITYSTYGKFLADGGCSGGAYDIIICDECHSTDATSILGIGTVLDQAETAG [279E] | 2.2 | – | – | – |
| SWGENDTDVFVLNNTRPPLGNWFGCTWMNSTGFTKVCGAPPC [232C] | – | 21.7 | 22.0 | 27.9 |
| TIFKIRMYVGGVEHRLEAACNWTRGERCDLEDRDRSELS [234C] | – | 12.1 | 44.5 | 8.8 |
| TTGSPITYSTYGKFLADGGCSGGAYDIIICDECHSTDAT [262B] | 4.7 | – | – | – |
| TVLDQAETAGARLVVLATATPPGSVTVPHPNIEEVAL [274A] | 2.0 | – | – | – |
| VFVLNNTRPPLGNWFGCTWMNSTGFTKVCGAPPC [232B] | – | 91.4 | 83.5 | 82.9 |
| VGGVEHRLEAACNWTRGERCDLEDRDRSELS [234B] | – | 13.2 | 20.9 | 17.9 |
| YGKFLADGGCSGGAYDIIICDECHSTDAT [262A] | 6.9 | – | – | – |
| HLHAPTGSGKSTKVPAAYAAQGYKVLVLNPSVAATLGFGAYMSKAHGIDPNIRTGVRTITTGSPITYSTYGKFLADGGCSGGAYDIIICDECHS (peptide) HLHAPTGSGKSTKVPAAYAAQGYKVLVLNPSVAATLGFGAYMSKAHGIDPNIRTGVRTITTGSPITYSTYGKFLADGGCSGGAYDIIICDECHS | 9.6 | – | – | – |
| TMRSPVFTDNSSPPVVPQSFQVAHLHAPTGSGKSTKVPAAYAAQGYKVLVLNPSVAATLGFGAYMSKAHGIDPNIRTGVRTITTGSPITYSTYGKFLADGGCSGGAYDIIICDECHS (peptide) TMRSPVFTDNSSPPVVPQSFQVAHLHAPTGSGKSTKVPAAYAAQGYKVLVLNPSVAATLGFGAYMSKAHGIDPNIRTGVRTITTGSPITYSTYGKFLADGGCSGGAYDIIICDECHS | 5.4 | – | – | – |
| AHGIDPNIRTGVRTITTGSPITYSTYGKFLADGGCSGGAYDIIICDECHSTDATSILGIGTVLDQAETAGARLVVLATATPPGSVTVPHPNIEEVAL (peptide) AHGIDPNIRTGVRTITTGSPITYSTYGKFLADGGCSGGAYDIIICDECHSTDATSILGIGTVLDQAETAGARLVVLATATPPGSVTVPHPNIEEVAL | 3.9 | – | – | – |
| GYKVLVLNPSVAATLGFGAYMSKAHGIDPNIRTGVRTITTGSPITYSTYGKFLADGGCSGGAYDIIICDECHSTDATSILGIGTVLDQAETAGARLVVLATATPPGSVTVPHPNIEEVAL (peptide) GYKVLVLNPSVAATLGFGAYMSKAHGIDPNIRTGVRTITTGSPITYSTYGKFLADGGCSGGAYDIIICDECHSTDATSILGIGTVLDQAETAGARLVVLATATPPGSVTVPHPNIEEVAL | 2.8 | – | – | – |
| SVAATLGFGAYMSKAHGIDPNIRTGVRTITTGSPITYSTYGKFLADGGCSGGAYDIIICDECHSTDAT (peptide) SVAATLGFGAYMSKAHGIDPNIRTGVRTITTGSPITYSTYGKFLADGGCSGGAYDIIICDECHSTDAT | 4.7 | – | – | – |
| GYKVLVLNPSVAATLGFGAYMSKAHGIDPNIRTGVRTITTGSPITYSTYGKFLADGGCSGGAYDIIICDECHSTDAT (peptide) GYKVLVLNPSVAATLGFGAYMSKAHGIDPNIRTGVRTITTGSPITYSTYGKFLADGGCSGGAYDIIICDECHSTDAT | 5.1 | – | – | – |
